The values below come from publication PMC8063737 (The Journal of Biological Chemistry, 2021).

Entries after “also recorded” stand apart in the source; their conditions may differ. Where two headings read alike, the source gives them in different places.

For series [1], the target named is T1, rigor PFA.S1 complex (cardiac myosin S1) (Oryctolagus cuniculus, UniProt P68135).
T1 construct: Rabbit skeletal F-actin was prepared as described previously from acetone powder; tissue Pelfreez Biologicals (bovine left ventricular muscle); host or cells: rabbit skeletal muscle (actin); bovine left ventricular muscle (myosin S1)
As to the kind of experiment: Stopped-flow ATP-induced dissociation of actin-S1 complex (ATP binding and isomerization). The class given is biochemical, bovine. Conditions: for decrease in rate constant k+2 for isomerization versus control: hyperbolic fits of kobs1 versus [MgATP]; for overall category of compound effect: severe if at least one parameter (K1 or k+2) was affected >3-fold; for effect on K1 (shown as 1/K1), category: versus control. The method, then:
To determine the equilibrium constant K1 for the formation of the collision complex, A.M.T, the rigor complex of PFA and myosin-S1 complex was formed in one syringe and the Mg.ATP placed in another syringe. […] (Equation 10). The rate constant k+2 was determined from hyperbolic plots of kobs1 versus [MgATP] […] The association equilibrium constant K1 was determined from the ratio of K1k+2/k+2.
Experiments were performed at 25 °C with filtered and degassed solutions. The instrument dead time for single-mix experiments was 1.3 ms. Samples were excited at 365 nm, and pyrene emission fluorescence was acquired with a 2 mm path length and 400 nm long-pass filter. Data analysis was done using the program, ORIGIN (OriginLab Corp).
K1 was determined by mixing the rigor complex of PFA.S1 (A.M) (final concentration of 0.05 μM) with varying final concentrations of MgATP (12.5–1000 μM) in F-Mg buffer in the absence and presence of the compounds, whereby the PFA.compound complex was first made, then mixed with S1, and placed in one syringe, and MgATP solution was placed in the other syringe. The transient curves were fitted to rate constants, kobs, fast and kobs, slow, and with corresponding amplitudes A1 and A2.

The target in series [2] is T2, pyrene-labeled F-actin (PFA) (Oryctolagus cuniculus, UniProt P68135).
T2 construct: Rabbit skeletal F-actin was prepared as described previously from acetone powder; from tissue; host or cells: rabbit skeletal muscle (acetone powder)
Put plainly: Compound binding to pyrene-labeled F-actin, steady-state fluorescence dose response. Also noted: species or system rabbit. Conditions: for effect on PFA (pyrene) fluorescence, dose-response: 2.5–150 μM compound.

Series [3] has as its target T3, PFA.C.S1 complex (F-actin with cardiac S1) (Oryctolagus cuniculus, UniProt P68135).
T3 construct: Rabbit skeletal F-actin was prepared as described previously from acetone powder; tissue Pelfreez Biologicals (bovine left ventricular muscle); host or cells: rabbit skeletal muscle (actin); bovine left ventricular muscle (myosin S1)
Put plainly: Steady-state S1 binding to and ATP-induced dissociation from the PFA.compound complex. The class given is biochemical, bovine. Conditions: 0.7:1 S1:actin, rigor; compound 100 μM except Flu and Dan 50 μM, Mit 10 μM. The method, then: We then added Mg.ATP and measured PFA fluorescence (Fig. 8B, peach bars).
Fluorescence spectra of 2 μM PFA in F-Mg buffer were acquired with a Cary spectrophotometer. The sample was placed in a cuvette in a temperature-controlled holder and excited with a Xenon flash lamp at 365 nm with 5 nm slit width. Emission fluorescence intensity was acquired and averaged for 30 s at 407 nm with a 10 nm slit width. […] Fluorescence intensity (F) was corrected for each compound's emission at 407 nm.
Fcalc was determined from normalized fluorescence intensity:(5) Fcalc=(FCompound+F0.7S1)

For series [4], the system named is skeletal and cardiac actin. Also noted: method as in PMID 32788211. Conditions: cited from earlier work; for isoform-specific differences in actin polymerization: skeletal versus cardiac actin.
For series [5] the following is noted: clinical use, cited from earlier work; for liver toxicity: ref 26 for Dan.
The target of series [6] is T4, PFA.C.S1 complex (Oryctolagus cuniculus, UniProt P68135).
T4 construct: Rabbit skeletal F-actin was prepared as described previously from acetone powder; tissue Pelfreez Biologicals (bovine left ventricular muscle); host or cells: rabbit skeletal muscle (actin); bovine left ventricular muscle (myosin S1)
As to the kind of experiment: Chase experiment: dissociation of S1 from rigor actin-S1 complex by unlabeled F-actin. Conditions: 20-fold unlabeled F-actin chase, 0.25 μM PFA.S1, 20 min. The class given is biochemical, bovine. The source says: The transient curve was best fitted to a double exponential equation to yield a fast and slow rate constant of 0.01 ± 5E-4 s^−1 and 0.003 ± 4E-4 s^−1, respectively.

Series [7] relates to PFA.S1 (pyrene-labeled F-actin with cardiac myosin S1). As to the kind of experiment: Steady-state PFA fluorescence with myosin-binding drugs (PFA, PFA.S1, plus MgATP). Type of series: biochemical, bovine. Conditions: 5 μM drug; for change in PFA fluorescence: 2 μM PFA, no S1; for PFA fluorescence restored by addition of MgATP: 2 μM PFA.S1, 1 mM MgATP, 95% without compound; for effect on S1-induced decrease in pyrene fluorescence: S1 equimolar to actin, no ATP. The method, then:
(§1) Fluorescence spectra of 2 μM PFA in F-Mg buffer were acquired with a Cary spectrophotometer. The sample was placed in a cuvette in a temperature-controlled holder and excited with a Xenon flash lamp at 365 nm with 5 nm slit width. Emission fluorescence intensity was acquired and averaged for 30 s at 407 nm with a 10 nm slit width. A final concentration of 2 μM PFA in F-actin buffer was used. Fluorescence intensity (F) was corrected for each compound's emission at 407 nm.

The subject of series [8] is equimolar PFA.S1 (2 μM) complex. Put plainly: Effect of nucleotide analogs on PFA-S1 fluorescence. Type of series: biochemical, bovine. Conditions: 10 mM PPi. The method, then:
The ten compounds were obtained from Target Molecule Corp and stored at –20 °C as 10 mM stock solutions in DMSO until use. OM and Mava were obtained from Selleck Chemicals and stored as 10 mM stock solutions at –20 °C until use. Sodium vanadate ([…]) and potassium pyrophosphate (PPi) were obtained from Sigma-Aldrich, and stock solutions of 50 mM and 1 M, respectively, were prepared as described previously ([36]). […] To study the effect of pyrophosphate, 10 mM PPi was added to an equimolar PFA.S1 (2 μM) complex. These ligand concentrations were saturating.
as §1

The mark [9] stands for this setting: 2 μM PFA, no MgATP, fits to the Hill equation, read-out: apparent dissociation equilibrium constant, Kd, of compound binding to PFA.
[10] abbreviates: 2 μM PFA, 200-500 μM MgATP, read-out: Kd of compound binding to PFA in the presence of MgATP.

Turning to `COc1ccccc1OCCNCC(O)COc1cccc2[nH]c3ccccc3c12` (stereo not shown) [Car], in series [1], the “decrease in rate constant k+2 for isomerization versus control” value is less than 1.5 fold; the “overall category of compound effect” value is given as “mild (mild effects to be <1.5-fold)”; the “effect on K1 (shown as 1/K1), category” value is listed as “mild (mild effects to be <1.5-fold)”. Besides, the “effect on PFA (pyrene) fluorescence, dose-response” value (“effect on PFA (pyrene) fluorescence” below) in series [2] (2 μM PFA) is reported as “minimal effects”. Also, in series [3], the “decrease in PFA fluorescence of PFA.compound.S1, experimental versus calculated (Fcalc)” value (“decrease in PFA fluorescence … (Fcalc)” for short) is listed as “greater decrease in PFA fluorescence”. In addition, the “polymerization rate of skeletal and cardiac actin” value (shortened to “polymerization rate”) in series [4] is “reduced the polymerization rate”.
`O=C1CN(/N=C/c2ccc(-c3ccc([N+](=O)[O-])cc3)o2)C(O)=N1` [Dan, Dantrolene]: in series [5], the liver toxicity result was “causes hepatoxicity”. For the same molecule, in series [1], the “increase in K1 versus control” value is on record as no less than 2 factor and the “overall category of compound effect” value is “severe (severe effects to be >3-fold)”. The “rate of dissociation of S1 from rigor actin-S1 complex versus control” value in series [6] is “No significant change”. For the same molecule, in series [2] (setting [9]), the Kd came to 17.5 ± 6 µM. In addition, in series [2] (2 μM PFA), the “effect on PFA (pyrene) fluorescence” value is “decreased PFA fluorescence with hyperbolic dependence”. Also, the “decrease in PFA fluorescence … (Fcalc)” value in series [3] is given as “smaller decrease in PFA fluorescence than expected”. In series [4], the “polymerization rate” value is recorded as “did not have significant effects”.
On to `OCCN1CCN(CCCN2c3ccccc3Sc3ccc(C(F)(F)F)cc32)CC1` [Flp], for which the liver toxicity entry in series [5] is listed as “cause liver toxicity”. In addition, the “polymerization rate” value in series [4] is “reduced the polymerization rate”.
Consider `CC(C)C(=O)Nc1ccc([N+](=O)[O-])c(C(F)(F)F)c1` [Flu], for which, in series [1], the “increase in K1 versus control” value was no less than 2 factor and the “overall category of compound effect” value is reported as “severe (severe effects to be >3-fold)”. Moreover, the “rate of dissociation of S1 from rigor actin-S1 complex versus control” value in series [6] is on record as “No significant change”. In addition, the Kd in series [2] was 39.6 ± 22 µM. In addition, in series [2] (2 μM PFA), the “effect on PFA (pyrene) fluorescence” value is reported as “decreased PFA fluorescence with hyperbolic dependence”. Also, the “effect of MgATP on fluorescence of PFA–compound complexes” value (“effect of MgATP” for short) in series [2] (200-500 μM MgATP) was “MgATP relieves the fluorescence inhibition”. In series [3], the “decrease in PFA fluorescence … (Fcalc)” value is recorded as “smaller decrease in PFA fluorescence than expected”.
Take `C=CCc1ccc(O)c(-c2ccc(O)c(CC=C)c2)c1` [Hon]: in series [1], the “decrease in rate constant k+2 for isomerization versus control” value is on record as less than 1.5 fold; the “overall category of compound effect” value was “mild (mild effects to be <1.5-fold)”; the “effect on K1 (shown as 1/K1), category” value is recorded as “mild (mild effects to be <1.5-fold)”. Also, in series [2] (2 μM PFA), the “effect on PFA (pyrene) fluorescence” value was “minimal effects”. Also, in series [3], the “decrease in PFA fluorescence … (Fcalc)” value is “no effect”. Moreover, the “polymerization rate” value in series [4] is recorded as “did not have significant effects”.
`CC(C)n1c(=O)cc(N[C@@H](C)c2ccccc2)[nH]c1=O` [Mava, mavacamten]: in series [7], the “change in PFA fluorescence” value stood at 1%, the “PFA fluorescence restored by addition of MgATP” value turned out to be 97% and the “effect on S1-induced decrease in pyrene fluorescence” value is “no effect”.
As to `OC(c1cc(C(F)(F)F)nc2c(C(F)(F)F)cccc12)C1CCCCN1` (stereo not shown) [Mef], in series [1], the “increase in K1 versus control” value is on record as no less than 2 factor and the “overall category of compound effect” value was “severe (severe effects to be >3-fold)”. Moreover, the Kd in series [2] (setting [10]) amounted to 89 ± 28.4 µM. In series [2] (setting [9]), the Kd turned out to be 20 ± 10 µM. The “effect on PFA (pyrene) fluorescence” value in series [2] (2 μM PFA) is “decreased PFA fluorescence with hyperbolic dependence”. The “effect of MgATP” value in series [2] (200-500 μM MgATP) is recorded as “increased PFA fluorescence in the presence of MgATP; also recorded: MgATP relieves the fluorescence inhibition”. In addition, the “decrease in PFA fluorescence … (Fcalc)” value in series [3] is “smaller decrease in PFA fluorescence than expected”. Moreover, in series [4], the “polymerization rate” value was “did not have significant effects”.
Take `O=C1c2c(O)ccc(O)c2C(=O)c2c(NCCNCCO)ccc(NCCNCCO)c21` [Mit, mitoxantrone]: the “increase in K1 versus control” value in series [1] is given as no less than 2 factor. The “overall category of compound effect” value in series [1] is on record as “severe (severe effects to be >3-fold)”. In series [6], the “rate of dissociation of S1 from rigor actin-S1 complex versus control” value was “No significant change”. In addition, the values for the Kd in series [2] (setting [10]) and in series [2] (setting [9]) were 24.7 ± 5.8 µM and 7.2 ± 1.2 µM, respectively. In addition, the “effect on PFA (pyrene) fluorescence” value in series [2] (2 μM PFA) was “decreased PFA fluorescence with hyperbolic dependence”. Besides, in series [2] (200-500 μM MgATP), the “effect of MgATP” value is given as “increased PFA fluorescence in the presence of MgATP; also recorded: MgATP relieves the fluorescence inhibition”. In series [3], the “decrease in PFA fluorescence … (Fcalc)” value is recorded as “smaller decrease in PFA fluorescence than expected”. In addition, the “polymerization rate” value in series [4] is given as “reduced the polymerization rate”.
Turning to `COC(=O)N1CCN(Cc2cccc(NC(=O)Nc3ccc(C)nc3)c2F)CC1` [OM, omecamtiv mecarbil], in series [7], the “change in PFA fluorescence” value is given as 4%, the “PFA fluorescence restored by addition of MgATP” value is reported as 65% and the “effect on S1-induced decrease in pyrene fluorescence” value is reported as “no effect”.
Turning to `c1ccc2c(c1)Nc1ccccc1S2` [Phn], in series [1], the “increase in K1 versus control” value was no less than 2 factor and the “overall category of compound effect” value is given as “severe (severe effects to be >3-fold)”. Moreover, in series [2] (2 μM PFA), the “effect on PFA (pyrene) fluorescence” value is on record as “minimal effects”. For the same molecule, the “decrease in PFA fluorescence … (Fcalc)” value in series [3] is given as “greater decrease in PFA fluorescence”. Besides, the “isoform-specific differences in actin polymerization” value (“isoform-specific differences” below) in series [4] was “showed isoform-specific differences”.
With `CCCCCNC(=N)N/N=C/c1c[nH]c2ccc(OC)cc12` [Teg], the heart failure result in series [5] (FDA caution or withdrawal) is “can contribute to heart failure”. Further, in series [1], the “increase in K1 versus control” value is listed as no less than 2 factor and the “overall category of compound effect” value is given as “severe (severe effects to be >3-fold)”. In addition, in series [2] (2 μM PFA), the “effect on PFA (pyrene) fluorescence” value is reported as “minimal effects”. The “decrease in PFA fluorescence … (Fcalc)” value in series [3] is given as “smaller decrease in PFA fluorescence than expected”. In addition, the “isoform-specific differences” value in series [4] is “showed isoform-specific differences”.
For `CSc1ccc2c(c1)N(CCC1CCCCN1C)c1ccccc1S2` (stereo not shown) [Thi], the liver toxicity entry in series [5] is “cause liver toxicity”. Moreover, in series [4], the “polymerization rate” value is “reduced the polymerization rate”; the “isoform-specific differences” value is “showed isoform-specific differences”.
Consider `O=P([O-])([O-])OP(=O)([O-])[O-].[K+].[K+].[K+].[K+]` [potassium pyrophosphate (PPi), potassium pyrophosphate], for which the “restoration of pyrene fluorescence of PFA-S1” value in series [8] is listed as “almost completely restored”.
